Reference: PubChem BioAssay (NCI)
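Dose response: 5 concentrations. Exposure: 48 h. Format: 96-well plates. Endpoint: linear interpolation; highest concentration if not reached. TGI denotes the concentration required for complete inhibition of growth.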

How the values were obtained:
Experiment in all cases: growth of human tumour cells (NCI), 48 h
OVCAR-5 ovarian = tested on: OVCAR-5 ovarian
CCRF-CEM leukemia = tested on: CCRF-CEM leukemia
KM12 colon = tested on: KM12 colon
HCC-2998 colon = tested on: HCC-2998 colon
NCI-H460 lung = tested on: NCI-H460 lung
M19-MEL melanoma = tested on: M19-MEL melanoma
UO-31 renal = tested on: UO-31 renal
HOP-92 NSCLC = tested on: HOP-92 NSCLC
A498 renal = tested on: A498 renal
DMS 114 small cell lung = tested on: DMS 114 small cell lung
A549 NSCLC = tested on: A549 NSCLC
COLO 205 colon = tested on: COLO 205 colon
ACHN renal = tested on: ACHN renal
SF-295 CNS = tested on: SF-295 CNS
DMS 273 small cell lung = tested on: DMS 273 small cell lung
TK-10 renal = tested on: TK-10 renal
IGROV1 ovarian = tested on: IGROV1 ovarian
MOLT-4 leukemia = tested on: MOLT-4 leukemia
XF 498 CNS = tested on: XF 498 CNS
HT29 colon = tested on: HT29 colon
SK-MEL-5 melanoma = tested on: SK-MEL-5 melanoma
SK-MEL-2 melanoma = tested on: SK-MEL-2 melanoma
SK-OV-3 ovarian = tested on: SK-OV-3 ovarian
786-0 renal = tested on: 786-0 renal
UACC-62 melanoma = tested on: UACC-62 melanoma
SN12C renal = tested on: SN12C renal
K-562 leukemia = tested on: K-562 leukemia
DLD-1 colon = tested on: DLD-1 colon
HL-60(TB) leukemia = tested on: HL-60(TB) leukemia
EKVX NSCLC = tested on: EKVX NSCLC
OVCAR-8 ovarian = tested on: OVCAR-8 ovarian
SNB-75 CNS = tested on: SNB-75 CNS
SNB-19 CNS = tested on: SNB-19 CNS
RPMI-8226 leukemia = tested on: RPMI-8226 leukemia
HCT-116 colon = tested on: HCT-116 colon
OVCAR-4 ovarian = tested on: OVCAR-4 ovarian
LXFL 529 NSCLC = tested on: LXFL 529 NSCLC
SF-539 CNS = tested on: SF-539 CNS
HOP-62 NSCLC = tested on: HOP-62 NSCLC
OVCAR-3 ovarian = tested on: OVCAR-3 ovarian
SK-MEL-28 melanoma = tested on: SK-MEL-28 melanoma
SF-268 CNS = tested on: SF-268 CNS
KM20L2 colon = tested on: KM20L2 colon
NCI-H226 lung = tested on: NCI-H226 lung
LOX IMVI melanoma = tested on: LOX IMVI melanoma
SW-620 colon = tested on: SW-620 colon
U251 CNS = tested on: U251 CNS
M14 melanoma = tested on: M14 melanoma
HCT-15 colon = tested on: HCT-15 colon
RXF-631 renal = tested on: RXF-631 renal
SNB-78 CNS = tested on: SNB-78 CNS
UACC-257 melanoma = tested on: UACC-257 melanoma
RXF 393 renal = tested on: RXF 393 renal
NCI-H23 lung = tested on: NCI-H23 lung
CAKI-1 renal = tested on: CAKI-1 renal
NCI-H522 lung = tested on: NCI-H522 lung
MALME-3M melanoma = tested on: MALME-3M melanoma

Measured: TGI

C1=CC=C2NCCCNC3=CC=CC=CC3=NCCCN=C2C=C1
> 100 µM: OVCAR-5 ovarian | CCRF-CEM leukemia | KM12 colon | HCC-2998 colon | NCI-H460 lung | M19-MEL melanoma | UO-31 renal | HOP-92 NSCLC | A498 renal | DMS 114 small cell lung | A549 NSCLC | COLO 205 colon | ACHN renal | SF-295 CNS | DMS 273 small cell lung | TK-10 renal | IGROV1 ovarian | MOLT-4 leukemia | XF 498 CNS | HT29 colon | SK-MEL-5 melanoma | SK-MEL-2 melanoma | SK-OV-3 ovarian | 786-0 renal | UACC-62 melanoma | SN12C renal | K-562 leukemia | DLD-1 colon | HL-60(TB) leukemia | EKVX NSCLC | OVCAR-8 ovarian | SNB-75 CNS | SNB-19 CNS | RPMI-8226 leukemia | HCT-116 colon | OVCAR-4 ovarian | LXFL 529 NSCLC | SF-539 CNS | HOP-62 NSCLC | OVCAR-3 ovarian | SK-MEL-28 melanoma | SF-268 CNS | KM20L2 colon | NCI-H226 lung | LOX IMVI melanoma | SW-620 colon | U251 CNS | M14 melanoma | HCT-15 colon | RXF-631 renal | SNB-78 CNS

CC1C[C@@H]2C(=O)NC(=O)[C@@H]2c2c1c1ccccc1n2C (some centres undefined)
> 100 µM: CCRF-CEM leukemia | KM12 colon | HCC-2998 colon | NCI-H460 lung | M19-MEL melanoma | UO-31 renal | UACC-257 melanoma | HOP-92 NSCLC | A498 renal | DMS 114 small cell lung | A549 NSCLC | COLO 205 colon | RXF 393 renal | SF-295 CNS | DMS 273 small cell lung | TK-10 renal | IGROV1 ovarian | MOLT-4 leukemia | XF 498 CNS | HT29 colon | NCI-H23 lung | CAKI-1 renal | SK-MEL-5 melanoma | SK-MEL-2 melanoma | SK-OV-3 ovarian | 786-0 renal | UACC-62 melanoma | SN12C renal | K-562 leukemia | DLD-1 colon | HL-60(TB) leukemia | EKVX NSCLC | OVCAR-8 ovarian | SNB-75 CNS | SNB-19 CNS | RPMI-8226 leukemia | LXFL 529 NSCLC | SF-539 CNS | HOP-62 NSCLC | OVCAR-3 ovarian | SK-MEL-28 melanoma | SF-268 CNS | KM20L2 colon | NCI-H226 lung | LOX IMVI melanoma | NCI-H522 lung | SW-620 colon | U251 CNS | MALME-3M melanoma | M14 melanoma | HCT-15 colon | RXF-631 renal | SNB-78 CNS
